From ChEMBL document CHEMBL3603789, “N-Lipidated Peptide Dimers: Effective Antibacterial Agents against Gram-Negative Pathogens through Lipopolysaccharide Permeabilization” (J Med Chem, 2015)
≈ marks a conversion by molar mass, not a printed value. Bridge positions count the residues as written; N and C are the ends. Peptide text beside a SMILES is read from it. I, II: the chains in the order shown. * marks the point of attachment. Myristoyl = CCCCCCCCCCCCCC(=O)*; Lauroyl = CCCCCCCCCCCC(=O)*; Decanoyl = CCCCCCCCCC(=O)*; Octanoyl = CCCCCCCC(=O)*; Hexanoyl = CCCCCC(=O)*; Butyryl = CCCC(=O)*

Experiments:
Lipopolysaccharide (LPS) [1] = test: Induction of Escherichia coli 0111:B4 LPS neutralization using p-nitroaniline assessed as concentration required to neutralize 50% after 1 hr by limulus amebocyte lysate assay
Escherichia coli = test: Antibacterial activity against Escherichia coli ATCC 25922 after 24 hrs by broth microdilution method; type: functional; details: ATCC 25922, 24 h
[2] = Toxicity in New Zealand white rabbit erythrocytes assessed as hemolytic activity after 60 mins; type: cell-based, Oryctolagus cuniculus; details: erythrocyte, 1 h
Lipopolysaccharide (LPS) [3] = test: Displacement of dansylcadaverine from Escherichia coli 0111:B4 LPS at 15 to 30 uM after 5 mins by high-throughput fluorescence displacement assay
[4] = Induction of calcein leakage from DOPE/DOPG artificial membrane at 1:32 ratio of compound to lipid by fluorescence assay; type: physicochemical
Klebsiella pneumoniae = test: Antibacterial activity against Klebsiella pneumoniae DM4299 after 24 hrs by broth microdilution method; type: functional; details: DM4299, 24 h
Pseudomonas aeruginosa [5] = test: Induction of cytoplasmic membrane disruption in Pseudomonas aeruginosa DM23155 assessed as membrane integrity at 1 to 2 times MIC after 1 hr by fluorescence assay; type: functional
Pseudomonas aeruginosa [6] = test: Antibacterial activity against Pseudomonas aeruginosa DM23155 after 24 hrs by broth microdilution method; type: functional; details: DM23155, 24 h
Pseudomonas aeruginosa [7] = test: Induction of 1-N-phenylnaphthylamine uptake in Pseudomonas aeruginosa DM23155 at 400 uM after 1 hr by fluorescence assay relative to polymyxin B; type: functional

Row | SMILES | EC50 (Lipopolysaccharide (LPS) [1]) [µM] | MIC (Escherichia coli) [µM] | HC10 [2] [µg/mL] | Activity (Lipopolysaccharide (LPS) [3]) [%] | Activity [4] | MIC (Klebsiella pneumoniae) [µM] | Activity (Pseudomonas aeruginosa [5]) [%] | MIC (Pseudomonas aeruginosa [6]) [µM] | Activity (Pseudomonas aeruginosa [7]) [%]
1 | CC(=O)N[C@@H](CCCNC(=N)N)C(=O)NCC(=O)N[C@@H](CCCNC(=N)N)C(=O)N[C@@H](CCCCN)C(=O)N[C@H](C(=O)N[C@H](C(=O)N[C@@H](CCCNC(=N)N)C(=O)N[C@@H](CCCNC(=N)N)C(=O)NCCCC[C@H](NC(=O)[C@H](CCCNC(=N)N)NC(=O)[C@H](CCCNC(=N)N)NC(=O)[C@@H](NC(=O)[C@@H](NC(=O)[C@H](CCCCN)NC(=O)[C@H](CCCNC(=N)N)NC(=O)CNC(=O)[C@H](CCCNC(=N)N)NC(C)=O)C(C)C)C(C)C)C(=O)N[C@@H](CCCCN)C(=O)O)C(C)C)C(C)C (I: Ac-RGRKVVRRKK-OH / II: Ac-RGRKVVRR; amide I:9-II:C) | > 1000 | 6 (≈ 14.2 µg/mL) | > 10000 | 75.7 | Active | 6 (≈ 14.2 µg/mL) | >80 | 6 (≈ 14.2 µg/mL) | 
2 | CCCC(=O)N[C@@H](CCCNC(=N)N)C(=O)NCC(=O)N[C@@H](CCCNC(=N)N)C(=O)N[C@@H](CCCCN)C(=O)NCC(=O)NCC(=O)N[C@@H](CCCNC(=N)N)C(=O)N[C@@H](CCCNC(=N)N)C(=O)N[C@@H](CCCCN)C(=O)N[C@@H](CCCCN)C(=O)O (Butyryl-RGRKGGRRKK-OH) |  | 40 (≈ 50.7 µg/mL) | > 10000 |  |  | 80 (≈ 101 µg/mL) |  | 80 (≈ 101 µg/mL) | 
3 | CCCCCCCCCCCCCC(=O)N[C@@H](CCCNC(=N)N)C(=O)NCC(=O)N[C@@H](CCCNC(=N)N)C(=O)N[C@@H](CCCCN)C(=O)N[C@H](C(=O)N[C@H](C(=O)N[C@@H](CCCNC(=N)N)C(=O)N[C@@H](CCCNC(=N)N)C(=O)N[C@@H](CCCCN)C(=O)N[C@@H](CCCCN)C(=O)O)C(C)C)C(C)C (Myristoyl-RGRKVVRRKK-OH) |  | 6 (≈ 8.96 µg/mL) | 8897 |  |  | 6 (≈ 8.96 µg/mL) |  | 10 (≈ 14.9 µg/mL) | 
4 | CCCC(=O)N[C@@H](CCCNC(=N)N)C(=O)NCC(=O)N[C@@H](CCCNC(=N)N)C(=O)N[C@@H](CCCCN)C(=O)N[C@H](C(=O)N[C@H](C(=O)N[C@@H](CCCNC(=N)N)C(=O)N[C@@H](CCCNC(=N)N)C(=O)NCCCC[C@H](NC(=O)[C@H](CCCNC(=N)N)NC(=O)[C@H](CCCNC(=N)N)NC(=O)[C@@H](NC(=O)[C@@H](NC(=O)[C@H](CCCCN)NC(=O)[C@H](CCCNC(=N)N)NC(=O)CNC(=O)[C@H](CCCNC(=N)N)NC(=O)CCC)C(C)C)C(C)C)C(=O)N[C@@H](CCCCN)C(=O)O)C(C)C)C(C)C (I: Butyryl-RGRKVVRRKK-OH / II: Butyryl-RGRKVVRR; amide I:9-II:C) | > 1000 | 3 (≈ 7.29 µg/mL) | > 10000 | 93.4 | Active | 6 (≈ 14.6 µg/mL) | >80 | 10 (≈ 24.3 µg/mL) | 
5 | CCCCCCCCCCCCCC(=O)N[C@@H](CCCNC(=N)N)C(=O)NCC(=O)N[C@@H](CCCNC(=N)N)C(=O)N[C@@H](CCCCN)C(=O)NCC(=O)NCC(=O)N[C@@H](CCCNC(=N)N)C(=O)N[C@@H](CCCNC(=N)N)C(=O)N[C@@H](CCCCN)C(=O)N[C@@H](CCCCN)C(=O)O (Myristoyl-RGRKGGRRKK-OH) |  | 6 (≈ 8.45 µg/mL) | 6670 |  |  | 10 (≈ 14.1 µg/mL) |  | 6 (≈ 8.45 µg/mL) | 
6 | CC(=O)N[C@@H](CCCNC(=N)N)C(=O)NCC(=O)N[C@@H](CCCNC(=N)N)C(=O)N[C@@H](CCCCN)C(=O)NCC(=O)NCC(=O)N[C@@H](CCCNC(=N)N)C(=O)N[C@@H](CCCNC(=N)N)C(=O)NCCCC[C@H](NC(=O)[C@H](CCCNC(=N)N)NC(=O)[C@H](CCCNC(=N)N)NC(=O)CNC(=O)CNC(=O)[C@H](CCCCN)NC(=O)[C@H](CCCNC(=N)N)NC(=O)CNC(=O)[C@H](CCCNC(=N)N)NC(C)=O)C(=O)N[C@@H](CCCCN)C(=O)O (I: Ac-RGRKGGRRKK-OH / II: Ac-RGRKGGRR; amide I:9-II:C) | > 1000 | 1.5 (≈ 3.31 µg/mL) | > 10000 | 56.1 |  | 3 (≈ 6.62 µg/mL) |  | 6 (≈ 13.2 µg/mL) | 1.6
7 | CCCC(=O)N[C@@H](CCCNC(=N)N)C(=O)NCC(=O)N[C@@H](CCCNC(=N)N)C(=O)N[C@@H](CCCCN)C(=O)N[C@H](C(=O)N[C@H](C(=O)N[C@@H](CCCNC(=N)N)C(=O)N[C@@H](CCCNC(=N)N)C(=O)N[C@@H](CCCCN)C(=O)N[C@@H](CCCCN)C(=O)O)C(C)C)C(C)C (Butyryl-RGRKVVRRKK-OH) |  | 40 (≈ 54.1 µg/mL) | > 10000 |  |  | > 80 |  | > 80 | 
8 | N=C(N)NCCC[C@H](NC(=O)CNC(=O)[C@@H](N)CCCNC(=N)N)C(=O)N[C@@H](CCCCN)C(=O)NCC(=O)NCC(=O)N[C@@H](CCCNC(=N)N)C(=O)N[C@@H](CCCNC(=N)N)C(=O)N[C@@H](CCCCN)C(=O)N[C@@H](CCCCN)C(=O)O (H-RGRKGGRRKK-OH) |  | 20 (≈ 24 µg/mL) | > 10000 |  |  | > 80 |  | > 80 | 
9 | CC(=O)N[C@@H](CCCNC(=N)N)C(=O)NCC(=O)N[C@@H](CCCNC(=N)N)C(=O)N[C@@H](CCCCN)C(=O)N[C@H](C(=O)N[C@H](C(=O)N[C@@H](CCCNC(=N)N)C(=O)N[C@@H](CCCNC(=N)N)C(=O)N[C@@H](CCCCN)C(=O)N[C@@H](CCCCN)C(=O)O)C(C)C)C(C)C (Ac-RGRKVVRRKK-OH) |  | 40 (≈ 53 µg/mL) | > 10000 |  |  | > 80 |  | > 80 | 
10 | CCCCCCCCCC(=O)N[C@@H](CCCNC(=N)N)C(=O)NCC(=O)N[C@@H](CCCNC(=N)N)C(=O)N[C@@H](CCCCN)C(=O)N[C@H](C(=O)N[C@H](C(=O)N[C@@H](CCCNC(=N)N)C(=O)N[C@@H](CCCNC(=N)N)C(=O)N[C@@H](CCCCN)C(=O)N[C@@H](CCCCN)C(=O)O)C(C)C)C(C)C (Decanoyl-RGRKVVRRKK-OH) | 566 | 6 (≈ 8.62 µg/mL) | > 10000 | 78 |  | 80 (≈ 115 µg/mL) |  | 20 (≈ 28.7 µg/mL) | 
11 | CCCCCCCCCC(=O)N[C@@H](CCCNC(=N)N)C(=O)NCC(=O)N[C@@H](CCCNC(=N)N)C(=O)N[C@@H](CCCCN)C(=O)NCC(=O)NCC(=O)N[C@@H](CCCNC(=N)N)C(=O)N[C@@H](CCCNC(=N)N)C(=O)N[C@@H](CCCCN)C(=O)N[C@@H](CCCCN)C(=O)O (Decanoyl-RGRKGGRRKK-OH) |  | 10 (≈ 13.5 µg/mL) | > 10000 |  |  | 20 (≈ 27.1 µg/mL) |  | 10 (≈ 13.5 µg/mL) | 
12 | CCCCCC(=O)N[C@@H](CCCNC(=N)N)C(=O)NCC(=O)N[C@@H](CCCNC(=N)N)C(=O)N[C@@H](CCCCN)C(=O)N[C@H](C(=O)N[C@H](C(=O)N[C@@H](CCCNC(=N)N)C(=O)N[C@@H](CCCNC(=N)N)C(=O)N[C@@H](CCCCN)C(=O)N[C@@H](CCCCN)C(=O)O)C(C)C)C(C)C (Hexanoyl-RGRKVVRRKK-OH) |  | 10 (≈ 13.8 µg/mL) | > 10000 |  |  | 80 (≈ 110 µg/mL) |  | 80 (≈ 110 µg/mL) | 
13 | CCCCCCCCCCCC(=O)N[C@@H](CCCNC(=N)N)C(=O)NCC(=O)N[C@@H](CCCNC(=N)N)C(=O)N[C@@H](CCCCN)C(=O)N[C@H](C(=O)N[C@H](C(=O)N[C@@H](CCCNC(=N)N)C(=O)N[C@@H](CCCNC(=N)N)C(=O)N[C@@H](CCCCN)C(=O)N[C@@H](CCCCN)C(=O)O)C(C)C)C(C)C (Lauroyl-RGRKVVRRKK-OH) |  | 6 (≈ 8.79 µg/mL) | > 10000 |  |  | 20 (≈ 29.3 µg/mL) |  | 10 (≈ 14.6 µg/mL) | 
14 | CCCCCC(=O)N[C@@H](CCCNC(=N)N)C(=O)NCC(=O)N[C@@H](CCCNC(=N)N)C(=O)N[C@@H](CCCCN)C(=O)NCC(=O)NCC(=O)N[C@@H](CCCNC(=N)N)C(=O)N[C@@H](CCCNC(=N)N)C(=O)N[C@@H](CCCCN)C(=O)N[C@@H](CCCCN)C(=O)O (Hexanoyl-RGRKGGRRKK-OH) |  | 20 (≈ 25.9 µg/mL) | > 10000 |  |  | > 80 |  | > 80 | 
15 | CCCCCCCC(=O)N[C@@H](CCCNC(=N)N)C(=O)NCC(=O)N[C@@H](CCCNC(=N)N)C(=O)N[C@@H](CCCCN)C(=O)N[C@H](C(=O)N[C@H](C(=O)N[C@@H](CCCNC(=N)N)C(=O)N[C@@H](CCCNC(=N)N)C(=O)N[C@@H](CCCCN)C(=O)N[C@@H](CCCCN)C(=O)O)C(C)C)C(C)C (Octanoyl-RGRKVVRRKK-OH) | > 1000 | 6 (≈ 8.45 µg/mL) | > 10000 | 69.9 |  | > 80 |  | 10 (≈ 14.1 µg/mL) | 
16 | CC(=O)N[C@@H](CCCNC(=N)N)C(=O)NCC(=O)N[C@@H](CCCNC(=N)N)C(=O)N[C@@H](CCCCN)C(=O)NCC(=O)NCC(=O)N[C@@H](CCCNC(=N)N)C(=O)N[C@@H](CCCNC(=N)N)C(=O)N[C@@H](CCCCN)C(=O)N[C@@H](CCCCN)C(=O)O (Ac-RGRKGGRRKK-OH) |  | 20 (≈ 24.8 µg/mL) | > 10000 |  |  | > 80 |  | > 80 | 
17 | CCCCCCCCCCCC(=O)N[C@@H](CCCNC(=N)N)C(=O)NCC(=O)N[C@@H](CCCNC(=N)N)C(=O)N[C@@H](CCCCN)C(=O)NCC(=O)NCC(=O)N[C@@H](CCCNC(=N)N)C(=O)N[C@@H](CCCNC(=N)N)C(=O)N[C@@H](CCCCN)C(=O)N[C@@H](CCCCN)C(=O)O (Lauroyl-RGRKGGRRKK-OH) |  | 6 (≈ 8.28 µg/mL) | 8602 |  |  | 10 (≈ 13.8 µg/mL) |  | 6 (≈ 8.28 µg/mL) | 
18 | CC(C)[C@H](NC(=O)[C@H](CCCCN)NC(=O)[C@H](CCCNC(=N)N)NC(=O)CNC(=O)[C@@H](N)CCCNC(=N)N)C(=O)N[C@H](C(=O)N[C@@H](CCCNC(=N)N)C(=O)N[C@@H](CCCNC(=N)N)C(=O)N[C@@H](CCCCN)C(=O)N[C@@H](CCCCN)C(=O)O)C(C)C (H-RGRKVVRRKK-OH) |  | 10 (≈ 12.8 µg/mL) | > 10000 |  |  | > 80 |  | 80 (≈ 103 µg/mL) | 
